Data on seven molecules can be found in ChEMBL document CHEMBL3352322, “Synthesis and biological evaluation of 3-phenethylazetidine derivatives as triple reuptake inhibitors” (Bioorg Med Chem Lett, 2014).

pIC50: −log10 of the molar value.

Targets include Cytochrome P450 2C9 (Homo sapiens, UniProt P11712); Cytochrome P450 2C19 (Homo sapiens, UniProt P33261); Cytochrome P450 3A4 (Homo sapiens, UniProt P08684); Cytochrome P450 2D6 (Homo sapiens, UniProt P10635).
Series [1] has as its target Sodium-dependent dopamine transporter (Homo sapiens, UniProt Q01959).
The target in series [2] is T1, Sodium-dependent noradrenaline transporter (Homo sapiens, UniProt P23975).
T1 sequence (P23975 whole entry): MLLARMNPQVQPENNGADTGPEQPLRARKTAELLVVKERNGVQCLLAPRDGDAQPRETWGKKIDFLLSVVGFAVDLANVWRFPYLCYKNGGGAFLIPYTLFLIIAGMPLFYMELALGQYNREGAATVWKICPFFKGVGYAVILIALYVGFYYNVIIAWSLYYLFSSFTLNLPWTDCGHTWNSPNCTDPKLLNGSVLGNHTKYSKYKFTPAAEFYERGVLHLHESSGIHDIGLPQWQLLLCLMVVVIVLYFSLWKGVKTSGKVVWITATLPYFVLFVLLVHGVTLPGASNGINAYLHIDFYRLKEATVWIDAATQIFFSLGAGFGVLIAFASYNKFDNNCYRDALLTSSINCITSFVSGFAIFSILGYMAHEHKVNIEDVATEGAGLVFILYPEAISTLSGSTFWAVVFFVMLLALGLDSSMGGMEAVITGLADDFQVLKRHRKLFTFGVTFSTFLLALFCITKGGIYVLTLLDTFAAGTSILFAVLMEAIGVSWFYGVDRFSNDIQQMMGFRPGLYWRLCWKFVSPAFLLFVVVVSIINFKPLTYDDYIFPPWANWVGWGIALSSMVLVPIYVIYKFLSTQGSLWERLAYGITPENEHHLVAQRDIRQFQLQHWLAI
For a further series, the target named is CYP2C19 (Homo sapiens, UniProt P33261). Briefly: in vitro. The conditions noted are these: recombinant CYP2C19.
Series [3] concerns the target T2, Sodium-dependent serotonin transporter (Homo sapiens, UniProt P31645). The conditions noted are these: HEK293, at 10 µM.
Target sequence in this assay (P31645 whole entry, looked up): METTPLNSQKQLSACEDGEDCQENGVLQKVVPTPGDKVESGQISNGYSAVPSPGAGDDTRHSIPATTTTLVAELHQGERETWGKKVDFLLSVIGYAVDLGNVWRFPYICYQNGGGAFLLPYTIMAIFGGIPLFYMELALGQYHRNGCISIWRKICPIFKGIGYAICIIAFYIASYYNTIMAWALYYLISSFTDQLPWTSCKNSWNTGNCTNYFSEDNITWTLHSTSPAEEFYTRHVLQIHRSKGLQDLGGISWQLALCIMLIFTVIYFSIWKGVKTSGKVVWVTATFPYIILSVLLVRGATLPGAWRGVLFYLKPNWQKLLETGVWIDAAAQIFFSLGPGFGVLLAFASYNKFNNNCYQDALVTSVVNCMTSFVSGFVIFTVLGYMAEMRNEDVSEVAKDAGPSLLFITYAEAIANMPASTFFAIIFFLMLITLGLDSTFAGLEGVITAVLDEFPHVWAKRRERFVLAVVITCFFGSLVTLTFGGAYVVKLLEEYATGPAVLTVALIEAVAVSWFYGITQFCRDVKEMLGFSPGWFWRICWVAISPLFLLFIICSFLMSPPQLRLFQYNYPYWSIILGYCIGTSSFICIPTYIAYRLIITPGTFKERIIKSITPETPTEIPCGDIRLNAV
The target in a further series is CYP2D6 (Homo sapiens, UniProt P10635). Briefly: in vitro. The conditions noted are these: recombinant CYP2D6.
Chain of CYP2D6 (P10635 whole entry): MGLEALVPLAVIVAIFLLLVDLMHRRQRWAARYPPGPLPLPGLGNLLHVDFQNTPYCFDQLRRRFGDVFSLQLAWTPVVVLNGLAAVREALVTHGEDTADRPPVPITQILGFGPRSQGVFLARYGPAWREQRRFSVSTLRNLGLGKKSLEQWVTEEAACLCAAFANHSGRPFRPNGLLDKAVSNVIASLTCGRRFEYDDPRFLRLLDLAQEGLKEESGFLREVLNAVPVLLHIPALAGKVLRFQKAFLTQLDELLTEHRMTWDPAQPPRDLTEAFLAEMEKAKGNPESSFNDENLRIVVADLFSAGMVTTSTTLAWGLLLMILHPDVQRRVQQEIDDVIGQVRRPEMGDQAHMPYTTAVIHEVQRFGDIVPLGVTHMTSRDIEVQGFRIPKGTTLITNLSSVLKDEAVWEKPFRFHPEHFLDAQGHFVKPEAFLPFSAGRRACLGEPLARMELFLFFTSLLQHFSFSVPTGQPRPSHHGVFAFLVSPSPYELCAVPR
Series [4] deals with T2, Sodium-dependent serotonin transporter. Format: cell-based, HEK293.
Target sequence in this assay (P31645 whole entry): as the sequence (P31645 whole entry, looked up) above
Series [5] has the same target. As to conditions: HEK293, at 0.1 µM.
Target sequence in this assay (P31645 whole entry, looked up): as above
Series [6] is described as follows: Stability in human liver microsomes assessed as compound remaining at 1 uM after 30 mins by LC/MS analysis. Format: ADME. As to conditions: read-out: Stability. Background: Liver microsomes are vesicles of endoplasmic reticulum, rich in cytochrome P450 enzymes.
Another series deals with T3, CYP1A2 (Homo sapiens, UniProt P05177).
T3 sequence (P05177 whole entry): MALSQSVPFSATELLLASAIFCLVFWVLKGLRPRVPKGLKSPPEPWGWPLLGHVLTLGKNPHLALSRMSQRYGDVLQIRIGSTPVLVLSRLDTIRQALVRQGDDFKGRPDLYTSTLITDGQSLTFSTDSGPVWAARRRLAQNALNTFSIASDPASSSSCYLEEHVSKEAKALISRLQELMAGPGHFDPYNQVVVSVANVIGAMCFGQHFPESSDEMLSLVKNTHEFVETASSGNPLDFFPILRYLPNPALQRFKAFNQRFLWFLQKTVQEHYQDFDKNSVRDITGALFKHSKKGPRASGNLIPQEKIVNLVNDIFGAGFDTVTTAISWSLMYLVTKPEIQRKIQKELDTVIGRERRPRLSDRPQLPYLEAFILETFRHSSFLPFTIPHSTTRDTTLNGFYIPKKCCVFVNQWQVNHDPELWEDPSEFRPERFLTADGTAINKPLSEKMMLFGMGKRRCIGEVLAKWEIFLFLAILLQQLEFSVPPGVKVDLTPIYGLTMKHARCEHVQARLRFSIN
Briefly: in vitro. The conditions noted are these: recombinant CYP1A2.

Another series has as its target CYP3A4 (Homo sapiens, UniProt P08684). Briefly: in vitro. The conditions noted are these: recombinant CYP3A4.
Series [7] deals with T2, Sodium-dependent serotonin transporter. As to conditions: HEK293, at 1 µM.
Target sequence in this assay (P31645 whole entry, looked up): as the sequence (P31645 whole entry, looked up) above
Another series concerns the target CYP2C9 (Homo sapiens, UniProt P11712). Briefly: in vitro. The conditions noted are these: recombinant CYP2C9.
In series [8] the target is T1, Sodium-dependent noradrenaline transporter. Briefly: Ratio of venlafaxine IC50 to compound IC50 for norepinephrine reuptake at human NET expressed in HEK293 cells at 0.1 uM after 15 mins by fluorescence neurotransmitter transporter assay. Format: cell-based.
Series [9] addresses T2, Sodium-dependent serotonin transporter. Briefly: Ratio of venlafaxine IC50 to compound IC50 for serotonin reuptake at human SERT expressed in HEK293 cells at 0.1 uM after 15 mins by fluorescence neurotransmitter transporter assay. Format: cell-based.
Target sequence in this assay (P31645 whole entry, looked up): as the sequence (P31645 whole entry, looked up) above
Series [10] concerns the target T1, Sodium-dependent noradrenaline transporter. Briefly: Ratio of duloxetine IC50 to compound IC50 for norepinephrine reuptake at human NET expressed in HEK293 cells at 0.1 uM after 15 mins by fluorescence neurotransmitter transporter assay. Format: cell-based.
The target of a further series is T4, Cytochrome P450 1A2 (Homo sapiens, UniProt P05177).
T4 sequence (P05177 whole entry): T3 sequence (P05177 whole entry)

For series [11], the target named is T2, Sodium-dependent serotonin transporter. Briefly: Ratio of duloxetine IC50 to compound IC50 for serotonin reuptake at human SERT expressed in HEK293 cells at 0.1 uM after 15 mins by fluorescence neurotransmitter transporter assay. Format: cell-based.
Target sequence in this assay (P31645 whole entry, looked up): as the sequence (P31645 whole entry, looked up) above
In series [12] the target is Voltage-gated inwardly rectifying potassium channel KCNH2 (Homo sapiens, UniProt Q12809). Briefly: Inhibition of human ERG expressed in CHO-K1 cells by patch-clamp electrophysiology method. Format: cell-based.

Chain of Cytochrome P450 2D6 (P10635 whole entry): as the sequence (P10635 whole entry) above
Chain of Cytochrome P450 2C9 (P11712 whole entry): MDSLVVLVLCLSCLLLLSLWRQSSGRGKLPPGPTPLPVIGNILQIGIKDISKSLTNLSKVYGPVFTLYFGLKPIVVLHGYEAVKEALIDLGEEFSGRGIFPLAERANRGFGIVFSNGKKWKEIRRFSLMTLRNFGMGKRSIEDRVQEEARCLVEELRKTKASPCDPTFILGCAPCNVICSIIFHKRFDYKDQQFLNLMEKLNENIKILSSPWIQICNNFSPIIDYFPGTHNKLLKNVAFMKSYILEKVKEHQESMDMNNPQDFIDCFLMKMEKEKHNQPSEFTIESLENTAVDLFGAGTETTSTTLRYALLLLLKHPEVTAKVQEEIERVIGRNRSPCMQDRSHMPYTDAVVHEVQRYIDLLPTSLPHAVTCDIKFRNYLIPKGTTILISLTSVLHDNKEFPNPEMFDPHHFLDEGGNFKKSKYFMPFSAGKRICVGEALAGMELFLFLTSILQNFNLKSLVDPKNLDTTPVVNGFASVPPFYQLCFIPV
Chain of CYP2C9 (P11712 whole entry): as above
Chain of CYP3A4 (P08684 whole entry): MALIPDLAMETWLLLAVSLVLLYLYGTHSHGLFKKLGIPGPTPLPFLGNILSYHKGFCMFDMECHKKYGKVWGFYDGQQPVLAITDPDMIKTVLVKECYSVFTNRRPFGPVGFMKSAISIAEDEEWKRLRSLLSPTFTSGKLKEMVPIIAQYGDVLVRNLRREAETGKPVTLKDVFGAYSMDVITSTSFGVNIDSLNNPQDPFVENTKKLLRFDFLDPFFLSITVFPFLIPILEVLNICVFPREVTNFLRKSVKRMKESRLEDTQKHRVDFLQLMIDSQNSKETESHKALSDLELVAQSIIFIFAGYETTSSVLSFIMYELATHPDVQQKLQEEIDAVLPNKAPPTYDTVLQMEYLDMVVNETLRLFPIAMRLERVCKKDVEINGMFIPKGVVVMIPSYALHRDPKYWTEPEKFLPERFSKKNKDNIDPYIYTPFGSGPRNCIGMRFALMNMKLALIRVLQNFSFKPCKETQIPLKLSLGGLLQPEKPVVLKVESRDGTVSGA
Chain of Cytochrome P450 3A4 (P08684 whole entry): as above
Chain of Sodium-dependent dopamine transporter (Q01959 whole entry): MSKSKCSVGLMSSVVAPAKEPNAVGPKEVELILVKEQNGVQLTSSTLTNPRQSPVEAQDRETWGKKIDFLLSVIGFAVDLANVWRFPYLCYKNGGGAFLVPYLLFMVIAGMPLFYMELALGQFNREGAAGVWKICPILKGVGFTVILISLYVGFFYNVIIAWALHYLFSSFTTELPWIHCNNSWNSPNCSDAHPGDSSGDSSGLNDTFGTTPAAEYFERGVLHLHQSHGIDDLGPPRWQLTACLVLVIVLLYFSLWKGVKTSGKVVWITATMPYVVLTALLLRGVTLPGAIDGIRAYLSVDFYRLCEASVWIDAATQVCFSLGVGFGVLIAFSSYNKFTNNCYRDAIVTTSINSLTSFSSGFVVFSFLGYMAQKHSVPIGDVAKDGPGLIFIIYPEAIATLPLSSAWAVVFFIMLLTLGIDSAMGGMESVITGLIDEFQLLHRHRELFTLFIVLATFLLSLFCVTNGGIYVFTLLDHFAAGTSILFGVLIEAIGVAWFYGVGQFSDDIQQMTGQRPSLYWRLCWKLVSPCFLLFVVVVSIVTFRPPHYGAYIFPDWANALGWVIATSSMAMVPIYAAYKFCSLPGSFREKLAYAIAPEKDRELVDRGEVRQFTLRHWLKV

For orientation: pIC50 means the negative decadic logarithm of the IC50, by convention in mol/L. Higher therefore signals a low IC50. As a reminder, the inhibition is how much of the control response was suppressed. In the case of `Fc1cc(C(CC2CNC2)Oc2ccccc2Cl)ccc1Cl` (configuration not stated), the negative logarithm of the IC50 (pIC50) in [1] was 6.79; in [2], 7.51; in [4], 7.43. For the same molecule, the inhibition at 10 µM stood at 7.4% at CYP2C19; 12% on CYP2D6; 76% at CYP1A2; 13% on CYP3A4; 18% at CYP2C9. For the same molecule, the figures for the inhibition in [3], in series [5] and in series [7] were 100%, 82% and 100%, respectively. The remaining at 0.5 h, 1 µM in [6] stood at 89%.

For the molecule `Fc1cc(C(CC2CNC2)Oc2cccc(Cl)c2)ccc1Cl` (configuration not stated), the Ratio IC50 in series [8], in [9], in series [10] and in series [11] was greater than 7 each time. In addition, the negative logarithm of the IC50 (pIC50) in series [1] was 7.08; in [2], 7.52; at Cytochrome P450 2C9 it was 5.96; in [4] it was 7.33; against Cytochrome P450 2C19, 6.60; against Cytochrome P450 1A2, 4.82. In addition, the negative-log IC50 (pIC50) is 6.22 on Cytochrome P450 3A4 and 6.28 on Cytochrome P450 2D6. Moreover, the inhibition at 10 µM on CYP2C19 came to 3.3%; at CYP2D6, 7.9%; on CYP1A2, 40%; at CYP3A4, 13%; at CYP2C9 it was 4.2%. Moreover, the values for the inhibition in [3], in series [5] and in series [7] were 100%, 87% and 100%, respectively. Further, the remaining at 0.5 h, 1 µM in series [6] is 57%.

For the molecule `Fc1cccc(OC(CC2CNC2)c2ccc(Cl)c(F)c2)c1` (configuration not stated), the Ratio IC50 in series [8], in [9], in series [10] and in series [11] was greater than 7 throughout. The pIC50 in [1] was 7.45; in series [2], 7.84; against Cytochrome P450 2C9 it was 5.51; in series [4], 7.44; against Cytochrome P450 2C19 it was 6.68; at Cytochrome P450 1A2, 4.89. For the same molecule, the figures for the negative-log IC50 (pIC50) (on Cytochrome P450 3A4; against Cytochrome P450 2D6; in series [12]) were 6.29, 5.40 and 5.84, respectively. Further, the inhibition at 10 µM is 6.4% on CYP2C19; 13% on CYP2D6; 30% on CYP1A2; 11% at CYP3A4; 11% on CYP2C9. In addition, the inhibition was found to be 100% in [3], 98% in [5] and 100% in [7]. Moreover, the remaining at 0.5 h, 1 µM in [6] was determined as 73%.

For `Cc1ccc(OC(CC2CNC2)c2ccc(Cl)c(F)c2)cc1` (configuration not stated), the pIC50 in series [1] is 6.96; in series [2] it was 7.48; in series [4] it was 7.41. In addition, the inhibition at 10 µM came out at 7.6% at CYP2C19; 10% on CYP2D6; 44% at CYP1A2; 13% on CYP3A4; 19% at CYP2C9. Further, the inhibition in [3] stood at 100%; in [5], 97%; in series [7], 100%. Besides, the remaining at 0.5 h, 1 µM in series [6] worked out at 59%.

Turning to `Cc1cccc(OC(CC2CNC2)c2ccc(Cl)c(F)c2)c1` (configuration not stated), the pIC50 in series [1] was 7.09; in series [2], 7.83; in series [4], 7.64. The inhibition at 10 µM at CYP2C19 was 5.5%; on CYP2D6 it was 12%; on CYP1A2 it was 58%; on CYP3A4, 12%; at CYP2C9 it was 6.8%. Also, the inhibition in [3], in series [5] and in series [7] was 100% throughout. The remaining at 0.5 h, 1 µM in series [6] came out at 36%.

With `Fc1cc(C(CC2CNC2)Oc2ccccc2F)ccc1Cl` (configuration not stated), the Ratio IC50 in series [8], in series [9], in series [10] and in series [11] was greater than 7 each time. Further, the negative-log IC50 (pIC50) in [1] was 7.19; in series [2], 7.80; against Cytochrome P450 2C9, 5.66; in [4], 7.33; at Cytochrome P450 2C19, 6.60; at Cytochrome P450 1A2, 4.36. The pIC50 against Cytochrome P450 3A4 was 6.15; on Cytochrome P450 2D6, 5.06; in series [12], 5.85. Moreover, the inhibition at 10 µM at CYP2C19 was 7%; on CYP2D6 it was 9.6%; on CYP1A2 it was 33%; at CYP3A4, 7.2%; on CYP2C9 it was 12%. Also, the inhibition in [3] was found to be 100%; in [5] it was 77%; in series [7] it was 100%. Besides, in series [6], the remaining at 0.5 h, 1 µM turned out to be 71%.

In the case of `Fc1ccc(OC(CC2CNC2)c2ccc(Cl)c(F)c2)cc1` (configuration not stated), the Ratio IC50 in series [8], in series [9], in series [10] and in [11] was greater than 7 throughout. For the same molecule, the negative logarithm of the IC50 (pIC50) in series [1] was 6.84; in [2] it was 7.49; against Cytochrome P450 2C9 it was 5.62; in series [4], 7.24; against Cytochrome P450 2C19 it was 5.89; at Cytochrome P450 1A2, 4.72. Further, the pIC50 is 6.40 against Cytochrome P450 3A4 and 6.00 at Cytochrome P450 2D6. The inhibition in series [3] was 100%; in series [5] it was 72%; in series [7], 100%. Besides, the remaining at 0.5 h, 1 µM in [6] amounted to 85%.
